The text below walks through data of PubChem BioAssay AID330 (DTP/NCI, 2004).

“And” between values parts separate entries of the source, which are not always exact repeats. Equal values may be shown once. Inconclusive results and toxic doses are left out.

The subject of the assay is P388 leukemia ip, CD2F1 mice, survival T/C. In words: NCI In Vivo Anticancer Drug Screen. Data for tumor model P388 Leukemia (intraperitoneal) in CD2F1 (CDF1) mice. The note with it: endpoint: median survival time, higher = longer survival. The gist of the method: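 Mice carrying the transplanted tumor received test compound or vehicle. Survival was recorded in each group, and the value is the treated-group measurement divided by that of the vehicle-treated control group.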

The mark [1] stands for this setting: dose: 50.0 mg/kg/injection, schedule: Q01DX005 (ip), vehicle: saline with Tween-80.
[2] abbreviates: dose: 100.0 mg/kg/injection, schedule: Q01DX005 (ip), vehicle: saline with Tween-80.
Where [3] appears, read: dose: 100.0 mg/kg/injection, schedule: Q04DX002 (ip), vehicle: saline with Tween-80.
The mark [4] stands for this setting: dose: 200.0 mg/kg/injection, schedule: Q04DX002 (ip), vehicle: saline with Tween-80.
The mark [5] stands for this setting: dose: 200.0 mg/kg/injection, schedule: Q01DX005 (ip), vehicle: saline with Tween-80.
[6] abbreviates: dose: 50.0 mg/kg/injection, schedule: Q01DX005 (ip), vehicle: Klucel (hydroxypropylcellulose) (HPC).
Where [7] appears, read: dose: 100.0 mg/kg/injection, schedule: Q01DX005 (ip), vehicle: Klucel (hydroxypropylcellulose) (HPC).
[8] abbreviates: dose: 200.0 mg/kg/injection, schedule: Q01DX005 (ip), vehicle: Klucel (hydroxypropylcellulose) (HPC).
The mark [9] stands for this setting: dose: 15.0 mg/kg/injection, schedule: Q01DX005 (ip), vehicle: saline with Tween-80.
The mark [10] stands for this setting: dose: 30.0 mg/kg/injection, schedule: Q01DX005 (ip), vehicle: saline with Tween-80.
Setting [11] is: dose: 6.25 mg/kg/injection, schedule: Q01DX009 (ip), vehicle: Klucel (hydroxypropylcellulose) (HPC).
Where [12] appears, read: dose: 60.0 mg/kg/injection, schedule: Q01DX005 (ip), vehicle: saline.
Where [13] appears, read: dose: 120.0 mg/kg/injection, schedule: Q01DX005 (ip), vehicle: saline.
Setting [14] is: dose: 240.0 mg/kg/injection, schedule: Q01DX005 (ip), vehicle: saline.
[15] abbreviates: dose: 12.5 mg/kg/injection, schedule: Q01DX009 (ip), vehicle: distilled water + Tween-80.
[16] abbreviates: dose: 25.0 mg/kg/injection, schedule: Q01DX009 (ip), vehicle: distilled water + Tween-80.
The mark [17] stands for this setting: dose: 50.0 mg/kg/injection, schedule: Q01DX009 (ip), vehicle: distilled water + Tween-80.
Where [18] appears, read: dose: 100.0 mg/kg/injection, schedule: Q01DX009 (ip), vehicle: distilled water + Tween-80.
Where [19] appears, read: dose: 200.0 mg/kg/injection, schedule: Q01DX009 (ip), vehicle: distilled water + Tween-80.
[20] abbreviates: dose: 60.0 mg/kg/injection, schedule: Q01DX005 (ip), vehicle: saline with Tween-80.

Take `CN(C)c1ccc(C2(c3ccc(N(C)C)cc3)c3ccccc3C(=O)N2N)cc1`: the T/C runs as follows: under setting [1], 86 % of control; under setting [2], 86 % of control.

Consider `O=C1OC(c2ccccc2)(c2ccccc2)c2cc3c(cc21)C(c1ccccc1)(c1ccccc1)OC3=O`, for which the T/C is 93 % of control (dose: 100.0 mg/kg/injection, schedule: Q01DX001 (ip), vehicle: saline); 93 % of control (dose: 200.0 mg/kg/injection, schedule: Q01DX001 (ip), vehicle: saline); 92 % of control (dose: 400.0 mg/kg/injection, schedule: Q01DX001 (ip), vehicle: saline).

Turning to `CCCCc1c2cnccc2c(CCCC)c2c1[nH]c1ccccc12`, the T/C was 105 % of control (dose: 25.0 mg/kg/injection, schedule: Q04DX002 (ip), vehicle: saline with Tween-80); 100 % of control (dose: 50.0 mg/kg/injection, schedule: Q04DX002 (ip), vehicle: saline with Tween-80); 96 % of control under setting [3]; 91 % of control under setting [4].

As to `Cc1ccc(NC(=O)C(Cl)(Cl)Cl)cc1[N+](=O)[O-]`, the T/C (dose: 100.0 mg/kg/injection, schedule: Q04DX003 (ip), vehicle: saline with Tween-80) is 104 % of control; the T/C (dose: 200.0 mg/kg/injection, schedule: Q04DX003 (ip), vehicle: saline with Tween-80) is 100 % of control; the T/C (dose: 400.0 mg/kg/injection, schedule: Q04DX003 (ip), vehicle: saline with Tween-80) is 100 % of control.

For the compound `COc1ccc(/C=C2/Oc3c(OC)c(OC)cc(OC)c3C2=O)cc1`, the T/C under setting [1] was 102 % of control, the T/C under setting [2] was 98 % of control and the T/C under setting [5] is 98 % of control.

On to `CC([NH-])CC(C)[NH-].[Br][Pt+2][Br]` (stereo not given), for which the T/C by setting is: (dose: 6.25 mg/kg/injection, schedule: Q04DX002 (ip), vehicle: saline with Tween-80) 154 % of control and 171 % of control and 159 % of control; (dose: 12.5 mg/kg/injection, schedule: Q04DX002 (ip), vehicle: saline with Tween-80) 188 % of control and 183 % of control and 186 % of control.

On to `CN1C(=O)NC(=O)C(=C2C=C(c3ccccc3)C(C#N)(c3ccccc3)C(c3ccccc3)=C2)C1=O` (stereo not given), for which the T/C by setting is: under setting [6], 97 % of control; under setting [7], 97 % of control; under setting [8], 101 % of control.

As for `c1ccc(C(NC2=NCCCCCC2)c2ccco2)cc1` (stereo not given), the T/C is, setting by setting: (dose: 7.5 mg/kg/injection, schedule: Q01DX005 (ip), vehicle: saline with Tween-80) 99 % of control; under setting [9], 93 % of control; under setting [10], 101 % of control.

On to `NC(=NCc1ccc2c(c1)OCO2)N[N+](=O)[O-]`, for which the T/C by setting is: under setting [6], 104 % of control; under setting [7], 100 % of control; under setting [8], 96 % of control.

Consider `C/C(=N\NC(=S)SCc1ccccc1)c1ccccn1`, for which the T/C is, setting by setting: (dose: 3.12 mg/kg/injection, schedule: Q01DX009 (ip), vehicle: Klucel (hydroxypropylcellulose) (HPC)) 108 % of control; under setting [11], 103 % of control and 110 % of control.

For the compound `C[C@]12C=CC(=O)C(O)=C1CC[C@@H]1[C@@H]2CC[C@]2(C)OC(=O)CC[C@@H]12`, the T/C (dose: 5.5 mg/kg/injection, schedule: Q01DX005 (ip), vehicle: Klucel (hydroxypropylcellulose) (HPC)) was 106 % of control; the T/C (dose: 11.0 mg/kg/injection, schedule: Q01DX005 (ip), vehicle: Klucel (hydroxypropylcellulose) (HPC)) is 106 % of control; the T/C (dose: 22.0 mg/kg/injection, schedule: Q01DX005 (ip), vehicle: Klucel (hydroxypropylcellulose) (HPC)) was 101 % of control; the T/C (dose: 44.0 mg/kg/injection, schedule: Q01DX005 (ip), vehicle: Klucel (hydroxypropylcellulose) (HPC)) is 106 % of control; the T/C (dose: 88.0 mg/kg/injection, schedule: Q01DX005 (ip), vehicle: Klucel (hydroxypropylcellulose) (HPC)) was 106 % of control; the T/C (dose: 176.0 mg/kg/injection, schedule: Q01DX005 (ip), vehicle: Klucel (hydroxypropylcellulose) (HPC)) was 107 % of control.

For the compound `O=C1OC(CO)CC1(O)CO` (stereo not given), the T/C is, setting by setting: under setting [12], 99 % of control; under setting [13], 105 % of control; under setting [14], 104 % of control.

As to `CC1C(=O)OC2C1CCC1(C)C=CC(=O)C3(C)OC213` (stereo not given), the T/C (dose: 60.0 mg/kg/injection, schedule: Q01DX005 (ip), vehicle: Klucel (hydroxypropylcellulose) (HPC)) was 100 % of control; the T/C (dose: 120.0 mg/kg/injection, schedule: Q01DX005 (ip), vehicle: Klucel (hydroxypropylcellulose) (HPC)) is 104 % of control; the T/C (dose: 240.0 mg/kg/injection, schedule: Q01DX005 (ip), vehicle: Klucel (hydroxypropylcellulose) (HPC)) was 105 % of control.

Turning to `O=C(O)c1ccc([N+](=O)[O-])cc1O.O=C(O)c1ccc([N+](=O)[O-])cc1O.[Cu]`, the T/C reads like this: (dose: 6.25 mg/kg/injection, schedule: Q01DX001 (ip), vehicle: saline with Tween-80) 100 % of control; (dose: 12.5 mg/kg/injection, schedule: Q01DX001 (ip), vehicle: saline with Tween-80) 103 % of control; (dose: 25.0 mg/kg/injection, schedule: Q01DX001 (ip), vehicle: saline with Tween-80) 97 % of control.

As to `COc1cc(OC)c(NC(=O)CC2SC(N)=NC2=O)cc1Cl` (stereo not given), the T/C (dose: 50.0 mg/kg/injection, schedule: Q01DX009 (ip), vehicle: Klucel (hydroxypropylcellulose) (HPC)) was 97 % of control and the T/C (dose: 100.0 mg/kg/injection, schedule: Q01DX009 (ip), vehicle: Klucel (hydroxypropylcellulose) (HPC)) is 97 % of control.

Regarding `CC(C1CC/C(=N/NC(N)=O)C1)[N+](=O)[O-]` (stereo not given), the T/C by setting is: under setting [15], 100 % of control; under setting [16], 91 % of control; under setting [17], 90 % of control; under setting [18], 100 % of control; under setting [19], 92 % of control.

`O=[N+]([O-])c1cccnc1S(=O)(=O)c1ncccn1`: the T/C is 100 % of control under setting [11]; 110 % of control (dose: 12.5 mg/kg/injection, schedule: Q01DX009 (ip), vehicle: Klucel (hydroxypropylcellulose) (HPC)); 96 % of control (dose: 25.0 mg/kg/injection, schedule: Q01DX009 (ip), vehicle: Klucel (hydroxypropylcellulose) (HPC)).

On to `COc1ccc(S(=O)(=O)O)cc1NS(=O)(=O)c1ccc(C)cc1`, for which the T/C was 102 % of control under setting [12], 98 % of control under setting [13] and 103 % of control under setting [14].

For `CCc1nc(N)nc(N)c1-c1ccc(N2CCCCC2)c([N+](=O)[O-])c1`, the T/C (dose: 3.13 mg/kg/injection, schedule: Q01DX009 (ip), vehicle: distilled water + Tween-80) is 104 % of control; the T/C (dose: 6.25 mg/kg/injection, schedule: Q01DX009 (ip), vehicle: distilled water + Tween-80) was 99 % of control; the T/C under setting [15] was 95 % of control; the T/C under setting [16] is 95 % of control; the T/C under setting [17] is 99 % of control and 90 % of control and 92 % of control; the T/C under setting [18] was 107 % of control and 86 % of control. For the same compound, the T/C under setting [19] is 90 % of control.

Take `Cc1ccc2cccc(OC(=O)Nc3ccc(C)c(NC(=O)Oc4cccc5ccc(C)nc45)c3)c2n1`: the T/C is, setting by setting: under setting [9], 95 % of control; under setting [10], 97 % of control; under setting [20], 99 % of control and 93 % of control.

As for `O=c1c2ccccc2nc(-c2cccc([N+](=O)[O-])c2)n1O`, the T/C runs as follows: under setting [20], 89 % of control; (dose: 120.0 mg/kg/injection, schedule: Q01DX005 (ip), vehicle: saline with Tween-80) 100 % of control; (dose: 240.0 mg/kg/injection, schedule: Q01DX005 (ip), vehicle: saline with Tween-80) 91 % of control.

As for `CCOc1cccc2c1C(=O)c1cccc(OCC)c1C2(O)C#Cc1ccccc1` (stereo not given), the T/C runs as follows: under setting [3], 90 % of control; under setting [4], 87 % of control; (dose: 400.0 mg/kg/injection, schedule: Q04DX002 (ip), vehicle: saline with Tween-80) 86 % of control.

Take `O=C1c2ccccc2-c2c1c1ccccc1c(=O)n2CCO`: the T/C runs as follows: under setting [1], 96 % of control; under setting [2], 94 % of control; under setting [5], 105 % of control.
